Assay results: US7109197B2, “N-phenyl-4-(4-pyridyl)-2-pyrimidineamine derivatives” (Syngenta Crop Protection, Inc., priority 2000, dated 2006)
Structures can show the parent of a compound that is named as a salt.

What was measured:
[1] = test system: Pyrenophora teres (Helminthosporium); assay: Assay B-10: Effect against Pyrenophora teres (Helminthosporium)/barley (net blotch on barley); type: in vivo; conditions: Pyrenophora teres on barley cv. Regina, 0.02% active substance, spray; for pest or weed control at 0.02 % strength: 96 h, read-out: B10 activity
Protocol: Assay B-10: Effect Against Pyrenophora teres (Helminthosporium)/Barley (Net Blotch on Barley) 1 week old barley plants cv. Regina are treated with a formulated testcompound (0.02% active substance) in a spray chamber. Two days after application barley plants are inoculated by spraying a spore suspension (3×10^4 conidia/ml) on the test plants. After an incubation period of 2 days at 20° C. and 95% r.h. plants are kept for 2 days at 20° C. and 60% r.h. in a greenhouse. The disease incidence is assessed 4 days after inoculation.

Erysiphe graminis = assay: Assay B-6: Effect against Erysiphe graminis on barley (powdery mildew); residual protective / systemic activity; type: in vivo; conditions: 0.02% active substance spray (residual) or 0.002% soil (systemic), variant not stated
Protocol: Assay B-6: Effect Against Erysiphe graminis on Barley (Powdery Mildew on Barley) a) Residual Protective Activity […] The infected plants are placed in a greenhouse at 22°. 12 days after infection, the fungal attack is evaluated. b) Systemic Activity […] […] 48 hours later, the plants are dusted with conidia of the fungus. The infected plants are placed in a greenhouse at 22° C. 12 days after infection, the disease incidence is evaluated.

Venturia inaegualis = assay: Assay B-5: Residual protective activity against Venturia inaegualis on apples (scab on apple); type: in vivo; conditions: Venturia inaegualis on apple seedlings cv. McIntosh; 0.02% active substance, spray
Protocol: Assay B-5: Residual Protective Activity Against Venturia inaegualis on Apples (Scab on Apple) 4 week old apple seedlings cv. McIntosh are treated with the formulated testcompound (0.02% active substance) in a spray chamber. One day after application apple plants are inoculated by spraying a spore suspension (4×10^5 conidia/ml) on the test plants. After an incubation period of 4 days at 21° C. and 95% r. h. the plants are placed for 4 days at 21° C. and 60% r. h. in a greenhouse. After another 4 day incubation period at 21° C. and 95% r. h. the disease incidence is assessed.

Botrytis cinerea [2] = assay: Assay B-8: Effect against Botrytis cinerea/tomato (Botrytis on tomatoes); type: in vivo; conditions: Botrytis cinerea on tomato cv. Roter Gnom; 0.02% active substance, spray
Protocol: Assay B-8: Effect Against Botrytis cinerea/Tomato (Botrytis on Tomatoes) 4 week old tomato plants cv. Roter Gnom are treated with the formulated testcompound 0.02% active substance) in a spray chamber. Two days after application tomato plants are inoculated by spraying a spore suspension (1×10^5 conidia/ml) on the test plants. After an incubation period of 4 days at 20° C. and 95% r. h. in a greenhouse the disease incidence is assessed.

Septoria nodorum = assay: Assay B-12: Effect against Septoria nodorum/wheat (Septoria leaf spot on wheat); type: in vivo; conditions: Septoria nodorum on wheat cv. Arina, 0.02% active substance, spray; for pest or weed control at 0.02 % strength: Parastagonospora nodorum, 264 h, read-out: B12 activity
Protocol: Assay B-12: Effect Against Septoria nodorum/Wheat (Septoria Leaf Spot on Wheat) 1 week old wheat plants cv. Arina are treated with a formulated test compound (0.02% active substance) in a spray chamber. One day after application wheat plants are inoculated by spraying a spore suspension (5×10^5 conidia/ml) on the test plants. After an incubation period of 1 day at 20° C. and 95% r.h. plants are kept for 10 days at 20° C. and 60% r.h. in a greenhouse. The disease incidence is assessed 11 days after inoculation.

Botrytis cinerea [3] = assay: Assay B-7: Botrytis cinerea/grape (Botrytis on grapes); type: in vivo; conditions: Botrytis cinerea on grape seedlings cv. Gutedel; 0.02% active substance, spray
Protocol: Assay B-7: Botrytis cinerea/Grape (Botrytis on Grapes) 5 week old grape seedlings cv. Gutedel are treated with the formulated testcompound (0.02% active substance) in a spray chamber. Two days after application grape plants are inoculated by spraying a spore suspension (1×10^6 conidia/ml) on the test plants. After an incubation period of 4 days at 21° C. and 95% r. h. in a greenhouse the disease incidence is assessed.

Pyricularia oryzae = type: in vivo; conditions: Pyricularia oryzae on rice cv. Sasanishiki; 0.02% active substance, spray

| Compound | melting point | B10 activity [1] | B6 activity (Erysiphe graminis) | B5 activity (Venturia inaegualis) | B8 activity (Botrytis cinerea [2]) | B12 activity (Septoria nodorum) | pest or weed control at 0.02 % strength [1] | B7 activity (Botrytis cinerea [3]) | B9 activity (Pyricularia oryzae) | pest or weed control at 0.02 % strength (Septoria nodorum) |
| --- | --- | --- | --- | --- | --- | --- | --- | --- | --- | --- |
| CC(C)Nc1cc(-c2ccnc(Nc3cccc(Cl)c3)n2)ccn1 (as salt: HCl) [Compound 82] | 88 to 89 °C | – | – | – | – | – | – | – | – | – |
| COCC(C)Nc1cc(-c2ccnc(Nc3cccc(Cl)c3)n2)cc(F)n1 (centres unmarked) [Compound 7] | – | + (the activity observed in the corresponding test system is 70% or more) | + (the activity observed in the corresponding test system is 70% or more) | + (the activity observed in the corresponding test system is 70% or more) | – | – | – | – | – | – |
| Clc1cccc(Nc2nccc(-c3ccnc(NCCCN4CCOCC4)c3)n2)c1 [Compound 8] | – | – | + (the activity observed in the corresponding test system is 70% or more) | – | + (the activity observed in the corresponding test system is 70% or more) | – | – | – | – | – |
| Clc1cccc(Nc2nccc(-c3ccnc(N4CCOCC4)c3)n2)c1 [Compound 17] | 175 to 176 °C | – | – | – | – | – | – | – | – | – |
| Clc1cccc(Nc2nccc(-c3ccnc(NCCN4CCOCC4)c3)n2)c1 [Compound 20] | – | + (the activity observed in the corresponding test system is 70% or more) | + (the activity observed in the corresponding test system is 70% or more) | – | + (the activity observed in the corresponding test system is 70% or more) | + (the activity observed in the corresponding test system is 70% or more) | – | – | – | – |
| Clc1cccc(Nc2nccc(-c3ccnc(N4CCNCC4)c3)n2)c1 [Compound 21] | 103 to 104 °C | – | – | – | – | – | – | – | – | – |
| NNc1cc(-c2ccnc(Nc3cccc(Cl)c3)n2)ccn1 [Compound 22] | 201 to 203 °C | – | – | – | – | – | > 70% | – | – | – |
| OCCNc1cc(-c2ccnc(Nc3cccc(Cl)c3)n2)ccn1 [Compound 37] | – | + (the activity observed in the corresponding test system is 70% or more) | + (the activity observed in the corresponding test system is 70% or more) | + (the activity observed in the corresponding test system is 70% or more) | + (the activity observed in the corresponding test system is 70% or more) | + (the activity observed in the corresponding test system is 70% or more) | – | + (the activity observed in the corresponding test system is 70% or more) | + (the activity observed in the corresponding test system is 70% or more) | – |
| CC(CO)Nc1cc(-c2ccnc(Nc3cccc(Cl)c3)n2)ccn1 (centres unmarked) [Compound 39] | – | + (the activity observed in the corresponding test system is 70% or more) | – | – | + (the activity observed in the corresponding test system is 70% or more) | + (the activity observed in the corresponding test system is 70% or more) | – | + (the activity observed in the corresponding test system is 70% or more) | + (the activity observed in the corresponding test system is 70% or more) | – |
| Clc1cccc(Nc2nccc(-c3ccnc(NCCCn4ccnc4)c3)n2)c1 [Compound 43] | – | + (the activity observed in the corresponding test system is 70% or more) | – | – | + (the activity observed in the corresponding test system is 70% or more) | + (the activity observed in the corresponding test system is 70% or more) | – | + (the activity observed in the corresponding test system is 70% or more) | + (the activity observed in the corresponding test system is 70% or more) | – |
| OCCCNc1cc(-c2ccnc(Nc3cccc(Cl)c3)n2)ccn1 [Compound 46] | – | + (the activity observed in the corresponding test system is 70% or more) | – | – | – | + (the activity observed in the corresponding test system is 70% or more) | – | – | + (the activity observed in the corresponding test system is 70% or more) | – |
| CN(C)c1cc(-c2ccnc(Nc3cccc(Cl)c3)n2)ccn1 [Compound 59] | 178 to 179 °C | – | + (the activity observed in the corresponding test system is 70% or more) | – | – | – | > 70% | – | – | > 70% |
| CCNc1cc(-c2ccnc(Nc3cccc(Cl)c3)n2)ccn1 [Compound 60] | 201 °C | – | – | + (the activity observed in the corresponding test system is 70% or more) | + (the activity observed in the corresponding test system is 70% or more) | – | > 70% | + (the activity observed in the corresponding test system is 70% or more) | – | > 70% |
| O=C(Nc1cc(-c2ccnc(Nc3cccc(Cl)c3)n2)ccn1)C(F)(F)F [Compound 63] | 180 to 181 °C | – | – | + (the activity observed in the corresponding test system is 70% or more) | + (the activity observed in the corresponding test system is 70% or more) | – | > 70% | + (the activity observed in the corresponding test system is 70% or more) | + (the activity observed in the corresponding test system is 70% or more) | > 70% |
| CNc1cc(-c2ccnc(Nc3cccc(Cl)c3)n2)ccn1 [Compound 64] | 196 to 197 °C | – | – | – | + (the activity observed in the corresponding test system is 70% or more) | – | > 70% | – | – | > 70% |
| CC(C)(C)Nc1cc(-c2ccnc(Nc3cccc(Cl)c3)n2)ccn1 [Compound 70] | 125 to 126 °C | – | – | – | + (the activity observed in the corresponding test system is 70% or more) | – | > 70% | – | – | > 70% |
| CC(C)=CCNc1cc(-c2ccnc(Nc3cccc(Cl)c3)n2)ccn1 [Compound 81] | – | + (the activity observed in the corresponding test system is 70% or more) | + (the activity observed in the corresponding test system is 70% or more) | – | + (the activity observed in the corresponding test system is 70% or more) | + (the activity observed in the corresponding test system is 70% or more) | – | – | – | – |
| CCC(=O)Nc1cc(-c2ccnc(Nc3cccc(Cl)c3)n2)ccn1 [Compound 96] | 215 to 216 °C | – | – | + (the activity observed in the corresponding test system is 70% or more) | – | – | > 70% | – | – | > 70% |
| FC(F)(F)CNc1cc(-c2ccnc(Nc3cccc(Cl)c3)n2)ccn1 [Compound 103] | 222 to 223 °C | – | + (the activity observed in the corresponding test system is 70% or more) | – | – | – | > 70% | – | – | > 70% |
| CCOC(=O)Nc1cc(-c2ccnc(Nc3cccc(Cl)c3)n2)ccn1 [Compound 121] | – | + (the activity observed in the corresponding test system is 70% or more) | – | – | – | – | – | – | + (the activity observed in the corresponding test system is 70% or more) | – |
| Cl.Clc1cccc(Nc2nccc(-c3ccnc(NC4CCOC4)c3)n2)c1 (centres unmarked) [Compound 125] | – | + (the activity observed in the corresponding test system is 70% or more) | – | – | + (the activity observed in the corresponding test system is 70% or more) | + (the activity observed in the corresponding test system is 70% or more) | – | – | + (the activity observed in the corresponding test system is 70% or more) | – |
